Laboratory results: PubChem BioAssay AID248 (DTP/NCI, 2004)
Values joined by “and” are separate entries in the source; they are usually repeats but may differ in a detail not shown here. Equal entries are not always repeated. Inconclusive results and toxic doses are left out. Cut-off read from the data, not from the text of the source: active = T/C of 150% or more; inactive = T/C below 125%.

Test system: L1210 leukemia ip in BDF1 mice, survival T/C
Experiment: NCI In Vivo Anticancer Drug Screen. Data for tumor model L1210 Leukemia (intraperitoneal) in B6D2F1 (BDF1) mice
Settings: endpoint: mean survival time, higher = longer survival
Procedure, shortened: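 Survival endpoint. Drug-treated group vs vehicle group, expressed as T divided by C. Tumor passaged by transplantation.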

[1] = dose: 100.0 mg/kg/injection, schedule: Q04DX002 (ip), vehicle: saline with Tween-80
[2] = dose: 200.0 mg/kg/injection, schedule: Q04DX002 (ip), vehicle: saline with Tween-80
[3] = dose: 100.0 mg/kg/injection, schedule: Q01DX009 (ip), vehicle: saline with Tween-80
[4] = dose: 200.0 mg/kg/injection, schedule: Q01DX009 (ip), vehicle: saline with Tween-80
[5] = dose: 100.0 mg/kg/injection, schedule: Q01DX001 (ip), vehicle: other
[6] = dose: 200.0 mg/kg/injection, schedule: Q01DX001 (ip), vehicle: other
[7] = dose: 400.0 mg/kg/injection, schedule: Q04DX002 (ip), vehicle: saline with Tween-80
[8] = dose: 12.5 mg/kg/injection, schedule: Q04DX002 (ip), vehicle: saline
[9] = dose: 25.0 mg/kg/injection, schedule: Q04DX002 (ip), vehicle: saline
[10] = dose: 50.0 mg/kg/injection, schedule: Q04DX002 (ip), vehicle: saline
[11] = dose: 100.0 mg/kg/injection, schedule: Q01DX009 (ip), vehicle: Klucel (hydroxypropylcellulose) (HPC)
[12] = dose: 100.0 mg/kg/injection, schedule: Q04DX003 (ip), vehicle: Klucel (hydroxypropylcellulose) (HPC)
[13] = dose: 200.0 mg/kg/injection, schedule: Q01DX009 (ip), vehicle: Klucel (hydroxypropylcellulose) (HPC)
[14] = dose: 200.0 mg/kg/injection, schedule: Q04DX003 (ip), vehicle: Klucel (hydroxypropylcellulose) (HPC)
[15] = dose: 400.0 mg/kg/injection, schedule: Q01DX009 (ip), vehicle: Klucel (hydroxypropylcellulose) (HPC)
[16] = dose: 400.0 mg/kg/injection, schedule: Q04DX003 (ip), vehicle: Klucel (hydroxypropylcellulose) (HPC)
[17] = dose: 100.0 mg/kg/injection, schedule: Q04DX003 (ip), vehicle: saline with Tween-80
[18] = dose: 200.0 mg/kg/injection, schedule: Q04DX003 (ip), vehicle: saline with Tween-80
[19] = dose: 400.0 mg/kg/injection, schedule: Q04DX003 (ip), vehicle: saline with Tween-80

Measured: T/C

O=C1NC(c2cccs2)(c2cccs2)C(=O)N1Cl
inactive: dose: 6.25 mg/kg/injection, schedule: Q01DX009 (ip), vehicle: water 100 % of control | dose: 12.5 mg/kg/injection, schedule: Q01DX009 (ip), vehicle: water 97 % of control and 116 % of control | dose: 25.0 mg/kg/injection, schedule: Q01DX009 (ip), vehicle: water 98 % of control and 113 % of control | dose: 25.0 mg/kg/injection, schedule: Q04DX003 (ip), vehicle: water 92 % of control | dose: 50.0 mg/kg/injection, schedule: Q01DX009 (ip), vehicle: water 104 % of control and 87 % of control | dose: 50.0 mg/kg/injection, schedule: Q04DX003 (ip), vehicle: water 100 % of control | dose: 100.0 mg/kg/injection, schedule: Q01DX009 (ip), vehicle: water 87 % of control | dose: 100.0 mg/kg/injection, schedule: Q04DX003 (ip), vehicle: water 97 % of control and 112 % of control | dose: 150.0 mg/kg/injection, schedule: Q01DX009 (ip), vehicle: water 116 % of control | dose: 200.0 mg/kg/injection, schedule: Q01DX009 (ip), vehicle: water 93 % of control

NC(N)=NC=O
inactive: [1] 105 % of control | [2] 98 % of control

CNC(=O)Nc1cccc(OC(=O)NC(C)(C)C)c1
inactive: [3] 91 % of control | [4] 93 % of control

CC1=NC(C#N)=C(C#N)N=C(c2ccccc2)C1
inactive: dose: 100.0 mg/kg/injection, schedule: Q01DX009 (ip), vehicle: gum acacia 99 % of control | dose: 200.0 mg/kg/injection, schedule: Q01DX009 (ip), vehicle: gum acacia 91 % of control

CCCCCCN(CCCCCC)C(C)=O
inactive: dose: 50.0 mg/kg/injection, schedule: Q04DX003 (ip), vehicle: other 103 % of control | [5] 96 % of control | dose: 100.0 mg/kg/injection, schedule: Q04DX003 (ip), vehicle: other 98 % of control | [6] 96 % of control | dose: 200.0 mg/kg/injection, schedule: Q04DX003 (ip), vehicle: other 93 % of control

CCOC(=O)C(C(=O)OCC)C(CC)c1ccccc1 (centres undefined)
inactive: [3] 101 % of control | [1] 103 % of control | [4] 92 % of control | [2] 100 % of control | dose: 400.0 mg/kg/injection, schedule: Q01DX009 (ip), vehicle: saline with Tween-80 95 % of control | [7] 95 % of control

CCCCCCCC/C=C/CCCCCC1CCCC(C)N1 (centres undefined)
inactive: dose: 6.25 mg/kg/injection, schedule: Q04DX002 (ip), vehicle: saline 96 % of control | [8] 96 % of control | [9] 111 % of control | [10] 90 % of control

OC(CN1CCCCC1)c1cccs1 (centres undefined)
inactive: dose: 6.25 mg/kg/injection, schedule: Q04DX003 (ip), vehicle: saline with Tween-80 94 % of control | dose: 12.5 mg/kg/injection, schedule: Q04DX003 (ip), vehicle: saline with Tween-80 97 % of control | dose: 25.0 mg/kg/injection, schedule: Q04DX003 (ip), vehicle: saline with Tween-80 94 % of control

C=C1C(=O)OC2CC/C=C\CCC12 (centres undefined)
inactive: dose: 50.0 mg/kg/injection, schedule: Q01DX009 (ip), vehicle: saline 95 % of control | dose: 100.0 mg/kg/injection, schedule: Q01DX009 (ip), vehicle: saline 103 % of control | dose: 200.0 mg/kg/injection, schedule: Q01DX009 (ip), vehicle: saline 95 % of control

O=C(COc1ccc(Cl)cc1)Nc1cccc(C(F)(F)F)c1
inactive: [11] 96 % of control | [12] 102 % of control | [13] 89 % of control | [14] 93 % of control | [15] 91 % of control | [16] 93 % of control

O=C(Nc1cccc(Cl)c1)Nc1cccc(Cl)c1
inactive: [11] 94 % of control | [12] 102 % of control | [13] 108 % of control | [14] 93 % of control | [15] 101 % of control | [16] 100 % of control

COC(=O)CCN(C(=O)c1ccccc1)c1ccccc1C(=O)OC
inactive: dose: 75.0 mg/kg/injection, schedule: Q01DX001 (ip), vehicle: saline 98 % of control | dose: 150.0 mg/kg/injection, schedule: Q01DX001 (ip), vehicle: saline 93 % of control | dose: 300.0 mg/kg/injection, schedule: Q01DX001 (ip), vehicle: saline 86 % of control

CC(=O)OC1C=C2CCC3C(CC(=O)C4(C)C3CC3OC34C(C)=O)C2(C)CC1 (centres undefined)
inactive: [8] 98 % of control | [9] 102 % of control | [10] 109 % of control

CC(=O)c1c(C)[nH]c(C(=O)OC(C)(C)C)c1C
inactive: dose: 100.0 mg/kg/injection, schedule: Q01DX001 (ip), vehicle: Klucel (hydroxypropylcellulose) (HPC) 95 % of control | [12] 102 % of control | dose: 200.0 mg/kg/injection, schedule: Q01DX001 (ip), vehicle: Klucel (hydroxypropylcellulose) (HPC) 97 % of control | [14] 96 % of control | dose: 400.0 mg/kg/injection, schedule: Q01DX001 (ip), vehicle: Klucel (hydroxypropylcellulose) (HPC) 95 % of control | [16] 96 % of control

C1CCc2c(sc3c2CCCC3)C1
inactive: dose: 50.0 mg/kg/injection, schedule: Q01DX001 (ip), vehicle: carboxymethylcellulose (CMC) 98 % of control | dose: 100.0 mg/kg/injection, schedule: Q01DX001 (ip), vehicle: carboxymethylcellulose (CMC) 104 % of control | dose: 200.0 mg/kg/injection, schedule: Q01DX001 (ip), vehicle: carboxymethylcellulose (CMC) 98 % of control | dose: 400.0 mg/kg/injection, schedule: Q01DX001 (ip), vehicle: carboxymethylcellulose (CMC) 107 % of control

O=C1NC(c2ccccc2)(c2ccccc2)C(O)N1CCO (centres undefined)
inactive: [17] 101 % of control | [18] 101 % of control | [19] 98 % of control

CCCN(CCC)N=Nc1ccccc1C(N)=O
inactive: [5] 107 % of control | [3] 90 % of control | [17] 104 % of control | [6] 102 % of control | [4] 102 % of control | [18] 94 % of control | dose: 400.0 mg/kg/injection, schedule: Q01DX001 (ip), vehicle: other 103 % of control | [19] 98 % of control

CCOCCOCCOC(C)Oc1ccc(Cl)cc1Cl (centres undefined)
inactive: [1] 97 % of control | [2] 94 % of control | [7] 100 % of control
